Results taken from paper PMC11500415, “Chemical inhibition of stomatal differentiation by perturbation of the master-regulatory bHLH heterodimer via an ACT-Like domain” (Nature Communications, 2024).
“And” between values parts separate entries of the source, which are not always exact repeats. Equal values may be shown once. Read-outs that look alike come from different tables or passages of the source.

Biological target: T1, MUTE_ACTL (Arabidopsis thaliana, UniProt Q9M8K6)
T1 construct: MUTE-ACTL (114-202); made in house; host or cells: E. coli BL21
Test: BLI direct binding
Set-up: species or system A. thaliana
Settings: for binding to MUTE by BLI (in words): BLI (Supplementary Table 3)
Source text: A. thaliana SCRM (1-494), ΔNSPCH (98-364), MUTE (1-202), ΔNFAMA (190-414), MUTEΔC (1-114), MUTER133A_R134A, MUTEE162A_E163A, MUTER133A_R134A_E162A_E163A, SCRM-ACTL (405-494), MUTE-ACTL (114-202), SPCH-ACTL (285-364), FAMA-ACTL (306-414), MUTE_ACTLR133A_R134A, MUTE_ACTLE162A_E163A, MUTE_ACTLR133A_R134A_E162A_E163A were cloned into pGEX-4T-1 vector with an N-terminal GST tag and a thrombin cleavage sequence. For protein expression, the constructs were transformed into E. coli strain BL21. For each transformant, a single colony was selected and incubated in 10 ml LB liquid media. The overnight-incubated E. coli suspensions were transferred to 1 L LB medium and incubated at 37 °C for around 2 h until the OD600 reached 0.4–0.6. The isopropyl β-D-1-thiogalactopyranoside ([…] of final concentration) was added to the cultures and the strains were incubated at 22 °C for a further 18 h. GST-fused proteins were purified using glutathione agarose resin. The soluble portion of the cell lysate was loaded onto a GST-Sepharose column. Nonspecifically bound proteins were removed by washing the column with 20 mM Tris pH 8.0, 200 mM NaCl. The bound GST-fused protein was eluted with 10 mm glutathione and 20 mM Tris pH 8.0, 200 mM NaCl. The GST-fused proteins were exchanged with phosphate-buffered saline buffer, and then the solution was treated with 50 μg of thrombin for 10–12 h at 16 ^οC. The GST portion of the protein was cleaved during thrombin digestion, and then the whole solution was reloaded onto the glutathione S-transferase column to obtain pure protein. The purified proteins were further purified by gel filtration on a Superdex-200 (GE) column using fast protein liquid chromatography and phosphate buffer (pH 7.2) as the eluent. The purity of the protein was checked by SDS-PAGE. For detailed lists of oligo DNA and plasmid information, see Supplementary Tables 5, 6, respectively.
The binding affinities of SCRM to MUTE / MUTER133A_R134A / MUTEE162A_E163A / MUTER133A_R134A_E162A_E163A in presence and absence of Stomidazolone (3) and its analogues (AYSJ1059 (5) and AYSJ1061 (6)), and Stomidazolone / AYSJ1059 / AYSJ1061 interactions with GST-tagged SCRM, MUTE, SPCH, FAMA, MUTE ΔACTL, MUTE_ACTL, SCRM_ACTL, SPCH_ACTL and FAMA_ACTL, MUTER133A_134A, MUTEE162A_E163A, MUTER133A_R134A_E162A_E163A were measured using the Octet Red96 system (ForteBio, Pall Life Sciences) following the manufacturer’s protocols. The optical probes coated with anti-GST were first loaded with 500 nM GST tagged proteins before kinetic binding analyses. The experiment was performed in 96-well plates maintained at 30 °C. Each well was loaded with 200 μL reaction volume for the experiment. The binding buffer used in these experiments contained 1× PBS supplemented with 2% DMSO, 0.02% Tween20. […] There was no binding of the analytes to the unloaded probes as shown by the control wells. Binding kinetics to all seven concentrations of the analytes were measured simultaneously using default parameters on the instrument. The data were analyzed using the Octet data analysis software. The association and dissociation curves were fit with the 1:1 homogeneous ligand model. The kobs (observed rate constant) values were used to calculate Kd, with steady-state analysis of the direct binding. See Supplementary Table 3 for details.

[1] = BLI steady state, MUTE_ACTL, read-out: KD (SS)
[2] = MUTE_ACTL on Anti-GST sensor, Stomid 3.12 µM, rep-1, rep-2
[3] = MUTE_ACTL on Anti-GST sensor, Stomid 6.25 µM, rep-1, rep-2
[4] = MUTE_ACTL on Anti-GST sensor, Stomid 12.5 µM, rep-1, rep-2
[5] = MUTE_ACTL on Anti-GST sensor, Stomid 25 µM, rep-1, rep-2
[6] = MUTE_ACTL on Anti-GST sensor, Stomid 50 µM, rep-1, rep-2
[7] = MUTE_ACTL on Anti-GST sensor, Stomid 100 µM, rep-1, rep-2
[8] = MUTE_ACTL on Anti-GST sensor, Stomid 200 µM, rep-1, rep-2

T1 sequence (Q9M8K6 114-202): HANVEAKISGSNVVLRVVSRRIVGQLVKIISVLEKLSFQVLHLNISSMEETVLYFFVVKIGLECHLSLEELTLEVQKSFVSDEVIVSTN

## Cc1ccc(C2(NS(=O)(=O)c3ccccc3)N=C(c3ccccc3)C(=O)N2S(=O)(=O)c2ccccc2)cc1 (centres unmarked) [AYSJ1059]
  binding to MUTE by BLI (in words): substantially weak binding
[1]
  Kd: 126 ± 13.5 µM
BLI, MUTE_ACTL, read-out: KD
  Kd: 123 ± 6.5 µM

## O=C1C(c2ccccc2)=NC(NS(=O)(=O)c2ccccc2)(c2ccc(Br)cc2)N1S(=O)(=O)c1ccccc1 (centres unmarked) [AYSJ1061]
  binding to MUTE by BLI (in words): substantially weak binding
[1]
  Kd: 139 ± 9.5 µM
BLI, MUTE_ACTL, read-out: KD
  Kd: 135 ± 5.5 µM

## O=C1C(c2ccccc2)=NC(NS(=O)(=O)c2ccccc2)(c2ccccc2)N1S(=O)(=O)c1ccccc1 (centres unmarked) [Stomidazolone]
[1]
  Kd: 13.1 ± 1.3 µM
BLI, GST-MUTE_ACTL on Anti-GST sensor, Stomid 3.12 µM
  Response: 0.126 and 0.163
BLI, GST-MUTE_ACTL on Anti-GST sensor, Stomid 6.25 µM
  Response: 0.271 and 0.242
BLI, GST-MUTE_ACTL on Anti-GST sensor, Stomid 12.5 µM
  Response: 0.425 and 0.391
BLI, GST-MUTE_ACTL on Anti-GST sensor, Stomid 25 µM
  Response: 0.524 and 0.486
BLI, GST-MUTE_ACTL on Anti-GST sensor, Stomid 50 µM
  Response: 0.535 and 0.563
BLI, GST-MUTE_ACTL on Anti-GST sensor, Stomid 100 µM
  Response: 0.611 and 0.632
BLI, GST-MUTE_ACTL on Anti-GST sensor, Stomid 200 µM
  Response: 0.625 and 0.645
BLI, sensor at Stomid 3.12 µM
  RMax: 0.132 and 0.165
BLI, sensor at Stomid 3.12 µM, read-out: KD
  Kd: 11.7 µM
BLI, sensor at Stomid 6.25 µM
  RMax: 0.28 and 0.245
  kobs: 0.00155 s⁻¹ and 0.00133 s⁻¹
  kon: 4070 M⁻¹ s⁻¹
BLI, sensor at Stomid 6.25 µM, read-out: KD
  Kd: 11.9 µM
BLI, sensor at Stomid 12.5 µM
  RMax: 0.435 and 0.4
  Req/Rmax(%): 49% and 87.1%
  kdis: 0.0482 s⁻¹
  kon: 4050 M⁻¹ s⁻¹
BLI, sensor at Stomid 12.5 µM, read-out: KD
  Kd: 11.9 µM
BLI, sensor at Stomid 25 µM
  RMax: 0.53 and 0.49
  Req/Rmax(%): 61.4% and 83.8%
  kdis: 0.0488 s⁻¹
  kobs: 0.00162 s⁻¹ and 0.00294 s⁻¹
  kon: 4070 M⁻¹ s⁻¹
BLI, sensor at Stomid 25 µM, read-out: KD
  Kd: 11.8 µM and 12 µM
BLI, sensor at Stomid 50 µM
  RMax: 0.545 and 0.565
  Req/Rmax(%): 71.3%
  kdis: 0.0473 s⁻¹
  kon: 4010 M⁻¹ s⁻¹
BLI, sensor at Stomid 50 µM, read-out: KD
  Kd: 11.9 µM and 11.8 µM
BLI, sensor at Stomid 100 µM
  RMax: 0.621 and 0.64
  Req/Rmax(%): 98.7%
  kdis: 0.0476 s⁻¹
  kon: 4080 M⁻¹ s⁻¹
BLI, sensor at Stomid 100 µM, read-out: KD
  Kd: 12.1 µM and 11.7 µM
BLI, sensor at Stomid 200 µM
  RMax: 0.63 and 0.655
  Req/Rmax(%): 100%
  kdis: 0.0474 s⁻¹
  kobs: 0.0329 s⁻¹ and 0.0251 s⁻¹
  kon: 4070 M⁻¹ s⁻¹
BLI, sensor at Stomid 200 µM, read-out: KD
  Kd: 12 µM and 11.6 µM
BLI, MUTE_ACTL, read-out: KD
  Kd: 12.2 ± 2.1 µM
[2]
  RMax: 0.132 and 0.165
  Response: 0.126 and 0.163
MUTE_ACTL on Anti-GST sensor, Stomid 3.12 µM, rep-1, rep-2, read-out: KD
  Kd: 11.7 µM
[3]
  RMax: 0.28 and 0.245
  Response: 0.271 and 0.242
  kobs: 0.00155 s⁻¹ and 0.00133 s⁻¹
  kon: 4070 M⁻¹ s⁻¹
MUTE_ACTL on Anti-GST sensor, Stomid 6.25 µM, rep-1, rep-2, read-out: KD
  Kd: 11.9 µM
[4]
  RMax: 0.4 and 0.435
  Req/Rmax(%): 87.1% and 49%
  Response: 0.391 and 0.425
  kon: 4070 M⁻¹ s⁻¹
MUTE_ACTL on Anti-GST sensor, Stomid 12.5 µM, rep-1, rep-2, read-out: KD
  Kd: 11.9 µM
[5]
  RMax: 0.49 and 0.53
  Req/Rmax(%): 83.8% and 61.4%
  Response: 0.486 and 0.524
  kobs: 0.00294 s⁻¹ and 0.00162 s⁻¹
  kon: 4080 M⁻¹ s⁻¹
MUTE_ACTL on Anti-GST sensor, Stomid 25 µM, rep-1, rep-2, read-out: KD
  Kd: 12 µM and 11.8 µM
[6]
  RMax: 0.545 and 0.565
  Req/Rmax(%): 71.3%
  Response: 0.535 and 0.563
MUTE_ACTL on Anti-GST sensor, Stomid 50 µM, rep-1, rep-2, read-out: KD
  Kd: 11.9 µM and 11.8 µM
[7]
  RMax: 0.621 and 0.64
  Req/Rmax(%): 98.7%
  Response: 0.611 and 0.632
MUTE_ACTL on Anti-GST sensor, Stomid 100 µM, rep-1, rep-2, read-out: KD
  Kd: 11.7 µM
[8]
  RMax: 0.63 and 0.655
  Req/Rmax(%): 100%
  Response: 0.625 and 0.645
  kobs: 0.0329 s⁻¹ and 0.0251 s⁻¹
MUTE_ACTL on Anti-GST sensor, Stomid 200 µM, rep-1, rep-2, read-out: KD
  Kd: 12 µM
read-out: kdis(1/s), BLI, sensor at Stomid 3.12 µM
  koff: 0.0481 s⁻¹
read-out: kdis(1/s), BLI, sensor at Stomid 6.25 µM
  koff: 0.0483 s⁻¹
read-out: kdis(1/s), BLI, sensor at Stomid 12.5 µM
  koff: 0.0485 s⁻¹
read-out: kdis(1/s), BLI, sensor at Stomid 25 µM
  koff: 0.0483 s⁻¹
read-out: kdis(1/s), BLI, sensor at Stomid 50 µM
  koff: 0.0485 s⁻¹
read-out: kdis(1/s), BLI, sensor at Stomid 100 µM
  koff: 0.0491 s⁻¹
read-out: kdis(1/s), BLI, sensor at Stomid 200 µM
  koff: 0.0486 s⁻¹
read-out: kdis(1/s), MUTE_ACTL on Anti-GST sensor, Stomid 6.25 µM, rep-1, rep-2
  koff: 0.0483 s⁻¹
read-out: kdis(1/s), MUTE_ACTL on Anti-GST sensor, Stomid 12.5 µM, rep-1, rep-2
  koff: 0.0485 s⁻¹
read-out: kdis(1/s), MUTE_ACTL on Anti-GST sensor, Stomid 25 µM, rep-1, rep-2
  koff: 0.0483 s⁻¹
read-out: kdis(1/s), MUTE_ACTL on Anti-GST sensor, Stomid 50 µM, rep-1, rep-2
  koff: 0.0485 s⁻¹
read-out: kon(1/Ms), BLI, sensor at Stomid 3.12 µM
  kon: 4110 M⁻¹ s⁻¹
read-out: kon(1/Ms), BLI, sensor at Stomid 6.25 µM
  kon: 4050 M⁻¹ s⁻¹
read-out: kon(1/Ms), BLI, sensor at Stomid 12.5 µM
  kon: 4070 M⁻¹ s⁻¹
read-out: kon(1/Ms), BLI, sensor at Stomid 25 µM
  kon: 4080 M⁻¹ s⁻¹
read-out: kon(1/Ms), BLI, sensor at Stomid 50 µM
  kon: 4070 M⁻¹ s⁻¹
read-out: kon(1/Ms), BLI, sensor at Stomid 100 µM
  kon: 4060 M⁻¹ s⁻¹
read-out: kon(1/Ms), BLI, sensor at Stomid 200 µM
  kon: 4040 M⁻¹ s⁻¹
read-out: kon(1/Ms), MUTE_ACTL on Anti-GST sensor, Stomid 6.25 µM, rep-1, rep-2
  kon: 4050 M⁻¹ s⁻¹
read-out: kon(1/Ms), MUTE_ACTL on Anti-GST sensor, Stomid 12.5 µM, rep-1, rep-2
  kon: 4050 M⁻¹ s⁻¹
read-out: kon(1/Ms), MUTE_ACTL on Anti-GST sensor, Stomid 25 µM, rep-1, rep-2
  kon: 4070 M⁻¹ s⁻¹
read-out: kon(1/Ms), MUTE_ACTL on Anti-GST sensor, Stomid 50 µM, rep-1, rep-2
  kon: 4070 M⁻¹ s⁻¹
read-out: kon(1/Ms), MUTE_ACTL on Anti-GST sensor, Stomid 100 µM, rep-1, rep-2
  kon: 4080 M⁻¹ s⁻¹
read-out: kon(1/Ms), MUTE_ACTL on Anti-GST sensor, Stomid 200 µM, rep-1, rep-2
  kon: 4070 M⁻¹ s⁻¹
